The values below are quoted from earlier work in patent US20220347399A1, “SYSTEMS AND METHODS OF USING AN ULTRASONIC FOGGER TO DISTRIBUTE AN ANTISEPTIC SOLUTION” (Wonder Spray, LLC, priority 2021, published 2022).

For data set [1] the following is noted: inhalation of vaporized HOCl.
The subject of data set [2] is E. coli. Particulars: 50 mM (2.6 ppm) HOCl, within 5 minutes.
Data set [3] has as its system E. coli. Particulars: 50 mM (2.6 ppm) HOCl, within 5 minutes. The source holds these as a separate data set.
Another data set has as its system f2 RNA. Particulars: f2 capsid proteins could still adsorb to the host.

Consider `OCl` [HOCl, Hypochlorous acid], for which the “adverse effects on inhaling the vaporized form” value in data set [1] is “no adverse effects”. For the same compound, the “inhibition of DNA synthesis” value in the data set with E. coli [2] is given as “ninety-six”. The “inhibition of the growth of E. coli” value in the data set with E. coli [3] is “completely inhibited”. The “inactivation of naked f2 RNA versus RNA in intact phage” value in the data set on f2 RNA is “inactivated naked f2 RNA at the same rate as RNA in intact phage”.
